According to patent US9120793B2, “Triazolo-pyridine compound” (Eli Lilly and Company, priority 2013, dated 2015):

Tests used:
human GPR-40 = molecular target: T1, human GPR-40 (Homo sapiens, UniProt O14842); assay: Calcium Flux Primary Assay; type: cell-based
T1 construct: expressed in transfected cells; host or cells: HEK293
Procedure: HEK293 cells over expressing the human GPR-40 cDNA maintained in Dulbecco's modified Eagle's medium with F12 medium in 3:1 ratio supplemented with 10% FBS and 800 μg/ml geneticin at 37° C. and 5% CO2 are employed for the study. Agonist assays are performed using a Calcium 4 Dye assay kit (Molecular Devices) in the presence or absence of 0.1% fatty acid free BSA in the assay buffer (1×HBSS (Hank's Balanced Salt Solution) & 20 mM HEPES (4-(2-hydroxyethyl)-1-piperazineethanesulfonic acid). Receptor activation is measured as an increase in intracellular calcium using the Fluorometric Imaging Plate Reader (FLIPR). Maximum change in fluorescence over the base line is used to determine the agonist response. The EC50 value of the compound is calculated using Excel Fit software (version 4; IDBS) by plotting concentration vs relative fluorescence units (RFUs). […] (Mean±SEM; SEM=standard error of the mean.)

PPARα = molecular target: T2, PPARα (Homo sapiens, UniProt Q07869); assay: PPARα reporter (CTF)/functional assay in CV1 cells; type: cell-based; details: examined up to 10 μM; efficacy <20% considered negative
T2 construct: expressed in transfected cells; host or cells: CV1 (African green monkey kidney)
T2 sequence (Q07869 239-466 limits assumed): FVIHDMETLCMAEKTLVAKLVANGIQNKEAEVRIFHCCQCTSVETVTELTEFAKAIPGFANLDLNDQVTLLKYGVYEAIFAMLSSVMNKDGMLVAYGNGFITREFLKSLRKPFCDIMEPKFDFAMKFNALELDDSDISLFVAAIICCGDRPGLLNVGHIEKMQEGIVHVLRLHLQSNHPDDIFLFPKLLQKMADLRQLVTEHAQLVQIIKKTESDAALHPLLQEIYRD
From the text: Because GPR-40 is known to be activated by ligands to PPARγ, exemplified compounds are examined in PPARα, PPARδ, and PPARγ reporter assays to determine the selectivity of an exemplified compound. CV1 cells, which are derived from the renal tissue of an African green monkey, are transfected with various receptor and reporter plasmids using Fugene. For the PPARα and PPARδ assays, a reporter plasmid containing five tandem copies of the yeast transcription protein Gal4 response element, cloned upstream of a firefly luciferase gene driven by the major late promoter of adenovirus, is transfected together with a Simian Virus 40 (SV40) driven plasmid constitutively expressing a hybrid protein containing the Gal4 DNA binding domain (DBD), and either the PPARα or PPARδ ligand binding domain. For the PPARγ assay, plasmids encoding PPARγ and RXRα, both driven by a cytomegalovirus (CMV) promoter are transfected together with a plasmid containing luciferase reporter cDNA driven by the TK promoter and a receptor response element (2×PPRE). […] After 24 hours incubation with compound, cells are lysed and luciferase activity is determined as a measure of receptor activation by luminescence. […] The maximum percent stimulation is determined versus maximum stimulation obtained with 10 μM of an appropriate PPAR agonist reference compound. […]

human GPR-40 (hGPR-40) = molecular target: T3, human GPR-40 (hGPR-40) (Homo sapiens, UniProt O14842); assay: Radioligand competition binding, in vitro binding affinity to GPR-40; details: 5 nM [3H] TAK-875; membranes of HEK293 cells overexpressing hGPR-40; Cheng-Prusoff
T3 construct: expressed in transfected cells; host or cells: HEK293 (membranes)
T3 sequence (O14842 whole entry): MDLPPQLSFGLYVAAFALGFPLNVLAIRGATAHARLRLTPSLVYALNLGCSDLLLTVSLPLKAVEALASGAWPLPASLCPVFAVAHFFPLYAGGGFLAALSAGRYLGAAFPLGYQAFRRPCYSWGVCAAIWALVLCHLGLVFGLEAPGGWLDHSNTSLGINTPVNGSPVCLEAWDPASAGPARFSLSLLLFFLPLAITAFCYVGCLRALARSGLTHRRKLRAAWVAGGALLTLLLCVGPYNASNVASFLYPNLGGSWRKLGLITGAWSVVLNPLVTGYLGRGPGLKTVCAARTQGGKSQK
From the text: Competition curves are plotted as the percent specific inhibition versus concentration of compound and analyzed using a four parameter nonlinear regression fit with variable slope. […] See Cheng, Y. and Prusoff, W. H. (1973) “Relationship between the inhibition constant (Ki) and the concentration of inhibitor which causes 50 per cent inhibition (IC50) of an enzymatic reaction,” Biochem Pharmacol 22(23):3099-3108. […] (Mean±SEM; SEM=standard error of the mean.).

T1 sequence (O14842 whole entry): as above

**Q.** Which EC50 (human GPR-40; HEK293 cells over expressing human GPR-40, intracellular calcium, FLIPR) does the source give for `CC#C[C@@H](CC(=O)O)c1ccc(OCc2ccc3nc(-c4c(C)cccc4C)nn3c2)cc1` [Example 1, (3S)-3-[4-[[2-(2,6-Dimethylphenyl)-[1,2,4]triazolo[1,5-a]pyridin-6-yl]methoxy]phenyl]hex-4-ynoic acid] here?
**A.** 119 nM

**Q.** And the efficacy (human GPR-40; maximal response compared to natural ligand linoleic acid)?
**A.** 76%

**Q.** And the “functional activation of PPARα” value (PPARα)?
**A.** No functional activation

**Q.** And the Ki (human GPR-40 (hGPR-40))?
**A.** 14.9 nM
